Here are results for 6 compounds from patent US20220152100A1, “METHODS FOR CONTROLLED ACTIVATION OR ELIMINATION OF THERAPEUTIC CELLS” (Bellicum Pharmaceuticals, Inc., priority 2014, published 2022).

Test [1] deals with 293 cells. In words: SEAP assay: iMC (tandem FKBP) plus FRBL2-Caspase-9. It counts as cell-based, human. The following applies: tandem FKBPs (iMC) present. The protocol:
FIGS. 16A and 16B are line graphs showing that tandem FKBP scaffold mediates FRBL2. Caspase activation in the presence of rapalogs. FIG. 16A. HEK-293 cells were transfected with 1 μg each of SRα-SEAP reporter plasmid, Δmyr.iMC.2A-anti-CD19.CAR.CD3 (pBP0608), and FRBL2. Caspase-9 (pBP0467). […] After ON incubation, cell supernatants were assayed for SEAP activity, as previously described. FIG. 16B. Similar to the experiment described in (FIG. 16A), except that cells were transfected with a membrane-localized (myristoylated) iMC.2A-CD19.CAR.CD3ζ (pBP0609), instead of non-myristoylated Amyr.iMC.2A-CD19.CAR.CD3ζ (pBP0608).
In a second test for rapalog-mediated scaffold-based activation of Caspase-9, 293 cells were transiently transfected with SRα-SEAP reporter plasmid, plus myristoylated or non-myristoylated inducible iMC co-expressed with 1st generation anti-CD19 CAR, plus FRBL2-fused Caspase-9 (plasmid pBP0467) (FIG. 16). […] Thus, rapamcyin and analogs can activate Caspase-9 via a molecular scaffold comprised of FRB or FKBP12 domains.

For the next test, the system named is 293T cells. Put plainly: SeAP reporter assay: FRBL-Caspase9 plus FKBPv12-Caspase9 heterodimerization. The class given is cell-based, human. The protocol:
HEK 293T cells (5×10^5) were seeded on a 100-mm tissue culture dish in 10 mL DMEM4500, supplemented with glutamine, penicillin/streptomycin and 10% fetal calf serum. After 16-30 hours incubation, cells were transfected using Novagen's GeneJuice® protocol. Briefly, for each transfection, 0.5 mL OptiMEM was pipeted into a 1.5-mL microcentrifuge tube and 15 μL GeneJuice reagent added followed by 5 sec. vortexing. Samples were rested 5 minutes to settle the GeneJuice suspension. DNA (5 μg total) was added to each tube and mixed by pipetting up and down four times. Samples were allowed to rest for 5 minutes for GeneJuice-DNA complex formation and the suspension added dropwise to one dish of 293T cells. A typical transfection contains 1 μg SRα-SEAP (pBP0046) (3), 2 μg FRB-Caspase-9 (pBP0463) and 2 μg FKBPv12-Caspase-9 (pBP0044) (7).
24 hours following transfection (4.1), 293T cells were split to 96-well plates and incubated with dilutions of dimerizing drugs. Briefly, 100 μL media was added to each well of a 96-well flat-bottom plate. Drugs were diluted in tubes to a concentration 4× the top concentration in the gradient to be place on the plate. […] 100 μL from each drug-containing well was then transferred to the adjacent well and the cycle repeated 10 times to produce a serial two-fold step gradient. The last wells were untreated and serve as a control for basal reporter activity. […]
24 hours after drug stimulation, 96-well plates were wrapped to prevent evaporation and incubated at 65®C for 2 hours to inactivate endogenous and serum phosphatases while the heat-stable SeAP reporter remains (1, 4, 12). […] Phosphatase activity was measured by fluorescence with excitation at 355 nm and emission at 460 nm. […]
FIG. 37—Drug induced programmed cell death by homodimerization or heterodimerization of tagged caspase 9. […] Reporter activity is expressed as a percentage of the average of 8 control wells containing no drug. […]
FIG. 38—Rapalog-induced cell death switch. […] Reporter activity is expressed as a percentage of the average of 8 wells containing no drug. […]
A general note: Reporter assays use an easily measured gene product as a stand-in for the process of interest.

In test [2] the target is FKBP12 x4 scaffold (plasmid pBP0722, pSH1-Fpk-Fpk′.LS.Fpk″.Fpk′′′.LS.HA) (Homo sapiens (Human)) (UniProt P62942). Put plainly: cell-based or functional assay.
The target in test [3] is wt FRB (K2095 T2098 W2101) (Homo sapiens, UniProt P42345+P62942). Conditions: cited from earlier work.
The test system of test [4] is 293 cells.
Source text: To determine if the polarity of heterodimerization and Caspase-9 assembly could be reversed, one to four 1 to 4 tandem copies of FKBP12 were subcloned into expression vector, pSH1, as above. […] As above, 293 cells were transfected with the SRα-SEAP reporter plasmid along with FRBL-ΔCaspase-9, plus a non-myristoylated scaffold protein containing 1 or 4 tandem copies of FKBP12.
Test [5] concerns 293 cells. In words: SEAP assay: FRBl2-tagged CAR plus iCaspase-9, two-tiered apoptosis. It counts as cell-based, human. The source says: FIGS. 6A and 6B provide the results of an assay of two-tiered activation of apoptosis.
As a proof of principal, two tandem FRBl domains were fused to either a 1st generation Her2-CAR or to a 1st generation CD19-CAR co-expressing inducible Caspase-9. 293 cells were transiently transfected with a constitutive reporter plasmid, SRα-SEAP, along with normalized levels of expression plasmids encoding Her2-CAR-FRBl2, iCaspase-9, Her2-CAR-FRBl2+iCasp9, iC9-CAR(19).FRBl2 (coexpressing both CD19-CAR-FRBl2 and iCaspase9), or control vector. […] After overnight incubation with drugs, SEAP activity was determined. […] This dose-dependent decrease required the presence of both the FRB-tagged CAR and the FKBP-tagged Caspase-9. […] Moreover, on- or off-target-mediated CAR clustering should increase the sensitivity of killing primarily at the site of scFv engagement.

Test [6] has as its system 293 cells. The source holds these as a separate data set.
Procedure: FIG. 12B: Cultures of HEK-293 cells were transfected (via Genejuice, Novagen) with the constitutive SRα-SEAP reporter plasmid (pBP0046, 1 μg), a fusion of human FKBP12 with human Caspase-9 (pBP0044, 2 μg) and FRB-encoding expression constructs, containing four copies of FRBL (pBP0725, 2 μg) or control vectors encoding zero or one copy of FRBL. […] FIG. 12C: Reporter assays were performed as in (B), but FRB-scaffolds were expressed from constructs encoding iterated FRBL domains with an amino-terminal myristoylation-targeting sequence and two (pBP0465) or four copies (pBP0721) of the FRBL domain.
A subset of constructs also contained the myristoylation-targeting domain from v-Src for membrane localization of the FRB-scaffold (FIG. 12A). 293 cells were transfected with the SRα-SEAP reporter plasmid along with FKBP12-ΔCaspase-9 (iCaspase-9/CaspaCIDe), plus 1 of several FRB-based, non-myristoylated scaffold proteins containing 0, 1, or 4 tandem copies of FRBL.
Test [7] addresses CD19-CAR-FRBl2 (1st generation CD19-CAR with two tandem FRBl domains, co-expressed with iCaspase-9 from iC9-CAR(19).FRBl2). In words: cell-based or functional assay.
Test [8] deals with FRBL x4 scaffold, not myristoylated (plasmid pBP0725, pSH1-FRBI.FRBI′.LS.FRBI″.FRBI′′′). Put plainly: cell-based or functional assay.
The target of test [9] is Her2-CAR-FRBl2 (1st generation Her2-CAR with two tandem FRBl domains at its carboxy terminus). In words: cell-based or functional assay.
For a further test, the system named is CD3+ΔCD19+ cells. Put plainly: CASPALLO phase 1 clinical trial: AP1903 in patients with GvHD after iCasp9+ T cells. Conditions: within 24 hours.
For test [10], the system named is 293 cells. Put plainly: SEAP assay: iMC.FRBL / iMC.FRBL2 plus Caspase-9. The class given is cell-based, human. Conditions: Caspase-9 with iMC.FRBL or iMC.FRBL2 and anti-HER2 CAR. The protocol: HEK-293 cells were transfected with 1 μg of SRα-SEAP constitutive reporter plasmid along with either negative (Neg) control, eGFP (pBP0047), CaspaCIDe (iC9/pBP0044) alone, or CaspaCIDe along with iMC.FRBL (pBP0655)+anti-HER2.CAR.Fpk2 (pBP0488) or iMC.FRBL2 (pBP0498)+anti-HER2.CAR.Fpk2. Cells were then plated with half-log dilutions of rimiducid or rapamycin and assayed for SEAP as previously described. Diminution of SEAP activity correlates with cell elimination. Schematic represents one possible rapamycin-mediated complex of signaling domains, which lead to Caspase-9 clustering and apoptosis.
To determine if multimers of FRB would still act as a recruitment scaffold to enable rapalog-mediated Caspase-9 dimerization when attached to another signaling domain, 1 or 2 FRBL domains were fused to the potent chimeric stimulatory molecule, MyD88/CD40, to derive iMC.FRBL (pBP0655) and iMC.FRBL2 (pBP0498), respectively (FIG. 9B). As an initial test, 293 cells were transiently transfected with reporter plasmid SRα-SEAP, Caspase-9, a 1st generation anti-HER2 CAR (pBP0488) and (pBP0655 or pBP0498) (FIG. 15). Control transfections contained Caspase-9 (pBP0044) alone or eGFP expression vector (pBP0047). […] Thus, heterodimerizer-mediated activation of Caspase-9 is possible in cells containing multimers of FRBL fused to distinct proteins, such as MyD88/CD40.

Setting [11] is: FRBL-Caspase9 plus FKBPv12-Caspase9.

Where two headings read alike, the source gives them in different places.

Sequence of FRBL x4 scaffold, not myristoylated (plasmid pBP0725, pSH1-FRBI.FRBI′.LS.FRBI″.FRBI′′′) (chain, as listed by the source limits assumed): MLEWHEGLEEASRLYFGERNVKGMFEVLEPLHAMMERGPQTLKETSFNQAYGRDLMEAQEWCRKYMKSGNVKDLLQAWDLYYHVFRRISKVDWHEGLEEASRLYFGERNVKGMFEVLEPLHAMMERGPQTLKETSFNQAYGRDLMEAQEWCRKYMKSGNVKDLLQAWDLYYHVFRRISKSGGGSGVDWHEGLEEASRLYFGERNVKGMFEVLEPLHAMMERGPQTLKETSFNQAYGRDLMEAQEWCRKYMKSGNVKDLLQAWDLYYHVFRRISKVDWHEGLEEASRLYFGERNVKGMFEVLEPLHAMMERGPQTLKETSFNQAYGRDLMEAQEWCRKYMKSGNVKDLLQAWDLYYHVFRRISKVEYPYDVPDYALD

Consider `COC1CC(CC(C)C2CC(=O)C(C)C=C(C)C(O)C(OC)C(=O)C(C)CC(C)C=CC=CC=C(C)C(OC(C)C)CC3CCC(C)C(O)(O3)C(=O)C(=O)N3CCCCC3C(=O)O2)CCC1O` (stereo not shown) [C7-isopropoxy-rapamycin, C7-isopropoxyrapamycin], for which the “activation of FRBL2-Caspase-9” value in the test on 293 cells [1] is “activated”. Moreover, the “cell death (loss of SeAP reporter)” value in the test with 293T cells (setting [11]) is “dose-dependent high efficacy cell death switch”.
“FRBL-ΔCaspase-9 fusion protein (plasmid pBP0463, pSH1-FRBL.dCaspase9.T2A)” had an IC50 of rapamycin or C7-isopropoxy-rapamycin for diminution of constitutive SRα-SEAP reporter activity (cell death) in transfected 293 cells in [2] of 3 nM.
The EC50 is the concentration needed to bring the measured effect to its halfway point. For the compound “S-Butanesulfonamidorap [S-Butanesulfonamidorap (AP23050)]”, the EC50 in test [3] is approximately 2.7 nM.
One may read the IC50 as the concentration that gives 50% inhibition. Higher therefore signals a need for much substance. Regarding `CO[C@H]1C[C@@H]2CC[C@@H](C)[C@@](O)(O2)C(=O)C(=O)N2CCCC[C@H]2C(=O)O[C@H]([C@H](C)C[C@@H]2CC[C@@H](O)[C@H](OC)C2)CC(=O)[C@H](C)/C=C(\C)[C@@H](O)[C@@H](OC)C(=O)[C@H](C)C[C@H](C)/C=C/C=C/C=C/1C` [rapamycin], the IC50 in the test with 293 cells [4] and with 293 cells [6] was approximately 3 nM each time. In addition, in the test on 293 cells [5] (FRB-tagged CAR and FKBP-tagged Caspase-9, overnight), the “decrease of SEAP activity” value is on record as approximately 50%.
In the case of “FKBP12v36-ΔCaspase-9 fusion protein (iCaspase-9; plasmid pBP0044, pSH1-iCaspase9wt)”, the SRα-SEAP reporter activity after overnight rapamycin in transfected 293 cells in test [7] and in [9] was 50 % decrease each time. Further, the IC50 of rapamycin or C7-isopropoxy-rapamycin for diminution of constitutive SRα-SEAP reporter activity (cell death) in transfected 293 cells in test [8] was 3 nM.
As for `CC[C@H](C(=O)N1CCCC[C@H]1C(=O)O[C@H](CCc1ccc(OC)c(OC)c1)c1cccc(OCC(=O)NCCNC(=O)COc2cccc([C@@H](CCc3ccc(OC)c(OC)c3)OC(=O)[C@@H]3CCCCN3C(=O)[C@@H](CC)c3cc(OC)c(OC)c(OC)c3)c2)c1)c1cc(OC)c(OC)c(OC)c1` (relative stereo) [AP1903, 2-Piperidinecarboxylic acid, 1-[(2S)-1-oxo-2-(3,4,5-trimethoxyphenyl)butyl]-, 1,2-ethanedilbis[imino(2-oxo-2,1-ethanediyl)oxy-3,1-phenyleneR1R)-3-(3,4-dimethoxyphenyl)propylidene]] ester, [2S-[1(R*),2R*[S*[S*[1(R*),2R*]]]]]-(9CI)], the “further reduction of CD3+ΔCD19+ cells” value in the test on CD3+ΔCD19+ cells is reported as “further log reduction”. The “SEAP reduction / cell killing” value with 293 cells [10] is listed as “killed by Caspase-9 homodimerization”. The “SEAP activity, of normal levels” value with 293 cells [5] (iCaspase-9, overnight) is recorded as “about 20%”. Further, in the test on 293 cells [1], the “activation of FRBL2-Caspase-9” value was “not activated”. In addition, the “cell death (loss of SeAP reporter)” value in the test with 293T cells (FKBPv12-Caspase-9 with control vector or FRB without caspase fusion) was “effectively permitted homodimerization and induction of Caspase-9”; in the test on 293T cells (setting [11]), “dose-dependent homodimerization of only FKBP12-Caspase9, leading to dimerization and activation of apoptosis”.
